Measurements taken from ChEMBL document CHEMBL1909046, “DrugMatrix in vitro pharmacology data”.

How the values were obtained:
[1] = target: Prostaglandin G/H synthase 1 (Homo sapiens, UniProt P23219); assay: biochemical; format: tissue-based, Platelet; details: platelet;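 note: inhibition of COX-1 enzyme activity, with arachidonic acid supplied as substrate; in other assays of this panel Not Active means under 50% inhibition at 10 µM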
Adenosine receptor A3 = target: T1, Adenosine receptor A3 (Homo sapiens, UniProt P0DMS8); format: cell membranes, CHO-K1, Membrane; details: cho-k1;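 note: radioligand binding assay with AB-MECA serving as the labeled ligand; in other assays of this panel Not Active means under 50% inhibition at 10 µM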
T1 sequence (P0DMS8 whole entry): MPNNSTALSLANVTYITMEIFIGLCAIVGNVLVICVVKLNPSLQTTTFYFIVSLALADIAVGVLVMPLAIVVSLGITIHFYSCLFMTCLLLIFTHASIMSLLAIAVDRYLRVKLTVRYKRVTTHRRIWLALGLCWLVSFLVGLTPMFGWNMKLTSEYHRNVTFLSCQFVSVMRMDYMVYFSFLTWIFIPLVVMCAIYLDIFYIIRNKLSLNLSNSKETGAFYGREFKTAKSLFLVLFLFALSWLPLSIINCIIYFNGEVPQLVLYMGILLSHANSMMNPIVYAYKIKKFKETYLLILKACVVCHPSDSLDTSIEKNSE

Neutrophil elastase = target: T2, Neutrophil elastase (Homo sapiens, UniProt P08246); format: tissue-based;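 note: inhibition of neutrophil elastase enzyme activity, measured with a p-nitroanilide-linked peptide substrate; in other assays of this panel Not Active means under 50% inhibition at 10 µM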
T2 sequence (P08246 whole entry): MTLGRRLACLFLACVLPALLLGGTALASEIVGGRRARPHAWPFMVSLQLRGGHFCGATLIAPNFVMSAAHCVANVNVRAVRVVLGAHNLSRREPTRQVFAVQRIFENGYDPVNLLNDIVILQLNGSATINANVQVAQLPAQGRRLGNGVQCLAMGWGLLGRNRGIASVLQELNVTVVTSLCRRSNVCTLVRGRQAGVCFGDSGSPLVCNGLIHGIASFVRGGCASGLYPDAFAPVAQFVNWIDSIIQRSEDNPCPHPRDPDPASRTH

[2] = DRUGMATRIX: Phosphodiesterase PDE4 enzyme inhibition (substrate: [3H]cAMP + cAMP); details: u-937; Not Active = under 50% inhibition at 10 µM
[3] = DRUGMATRIX: ATPase, Na+/K+ enzyme inhibition (substrate: ATP); format: tissue-based, Sus scrofa, Heart; details: Not Active = under 50% inhibition at 10 µM
[4] = target: T3, Nitric oxide synthase, inducible (Mus musculus, UniProt P29477); set-up: species or system Escherichia coli;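 note: inhibition of iNOS enzyme activity measured with L-arginine as substrate; in other assays of this panel Not Active means under 50% inhibition at 10 µM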
T3 sequence (P29477 whole entry): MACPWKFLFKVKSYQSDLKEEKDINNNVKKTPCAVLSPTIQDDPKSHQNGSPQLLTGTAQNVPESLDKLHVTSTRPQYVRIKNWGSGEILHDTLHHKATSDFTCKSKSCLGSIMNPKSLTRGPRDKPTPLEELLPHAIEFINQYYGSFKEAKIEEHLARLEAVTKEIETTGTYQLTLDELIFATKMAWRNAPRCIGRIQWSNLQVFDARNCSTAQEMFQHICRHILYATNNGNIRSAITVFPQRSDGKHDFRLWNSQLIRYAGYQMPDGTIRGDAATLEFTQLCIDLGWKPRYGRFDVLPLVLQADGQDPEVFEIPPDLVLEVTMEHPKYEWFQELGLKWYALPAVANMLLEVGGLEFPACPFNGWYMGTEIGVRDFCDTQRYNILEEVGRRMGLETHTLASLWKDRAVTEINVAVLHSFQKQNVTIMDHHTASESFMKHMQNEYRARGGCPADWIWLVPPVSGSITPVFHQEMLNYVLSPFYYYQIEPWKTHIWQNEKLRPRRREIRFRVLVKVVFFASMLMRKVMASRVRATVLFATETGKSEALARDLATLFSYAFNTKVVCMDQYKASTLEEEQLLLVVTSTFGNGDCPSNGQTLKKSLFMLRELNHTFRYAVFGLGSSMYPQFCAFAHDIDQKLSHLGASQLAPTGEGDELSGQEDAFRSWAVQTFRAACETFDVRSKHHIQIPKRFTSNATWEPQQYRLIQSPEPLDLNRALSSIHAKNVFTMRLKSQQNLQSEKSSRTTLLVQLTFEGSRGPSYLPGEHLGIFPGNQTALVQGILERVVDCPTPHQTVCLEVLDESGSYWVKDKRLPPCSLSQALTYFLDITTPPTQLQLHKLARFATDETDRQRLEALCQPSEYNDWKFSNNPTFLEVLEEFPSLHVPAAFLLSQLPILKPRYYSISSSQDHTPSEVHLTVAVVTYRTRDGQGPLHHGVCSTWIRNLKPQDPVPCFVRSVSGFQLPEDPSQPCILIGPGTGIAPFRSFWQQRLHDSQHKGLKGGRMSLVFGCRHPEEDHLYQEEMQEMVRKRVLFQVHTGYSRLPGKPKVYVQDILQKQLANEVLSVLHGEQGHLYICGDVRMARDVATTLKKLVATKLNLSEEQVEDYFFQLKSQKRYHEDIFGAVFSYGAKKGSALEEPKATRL

Cytochrome P450 2D6 = Cytochrome P450 2D6 (Homo sapiens, UniProt P10635); details: bti-tn-5b1-4; note: in other assays of this panel Not Active means under 50% inhibition at 10 µM
Chain of Cytochrome P450 2D6 (P10635 whole entry): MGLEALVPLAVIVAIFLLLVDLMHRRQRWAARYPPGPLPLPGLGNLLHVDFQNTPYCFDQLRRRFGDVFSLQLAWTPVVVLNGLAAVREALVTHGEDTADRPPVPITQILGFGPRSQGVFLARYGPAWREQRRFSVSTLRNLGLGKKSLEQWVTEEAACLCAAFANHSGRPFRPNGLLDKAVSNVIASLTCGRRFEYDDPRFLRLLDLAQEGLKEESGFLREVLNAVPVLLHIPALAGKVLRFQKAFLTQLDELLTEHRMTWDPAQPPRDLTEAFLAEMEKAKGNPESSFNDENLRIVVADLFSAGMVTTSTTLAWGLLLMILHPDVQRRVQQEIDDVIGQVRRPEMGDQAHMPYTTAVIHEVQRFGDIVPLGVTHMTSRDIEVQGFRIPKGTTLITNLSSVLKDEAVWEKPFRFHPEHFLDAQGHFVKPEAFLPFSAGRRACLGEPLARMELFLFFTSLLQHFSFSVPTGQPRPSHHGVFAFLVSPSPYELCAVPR

Chain of Prostaglandin G/H synthase 1 (P23219 whole entry): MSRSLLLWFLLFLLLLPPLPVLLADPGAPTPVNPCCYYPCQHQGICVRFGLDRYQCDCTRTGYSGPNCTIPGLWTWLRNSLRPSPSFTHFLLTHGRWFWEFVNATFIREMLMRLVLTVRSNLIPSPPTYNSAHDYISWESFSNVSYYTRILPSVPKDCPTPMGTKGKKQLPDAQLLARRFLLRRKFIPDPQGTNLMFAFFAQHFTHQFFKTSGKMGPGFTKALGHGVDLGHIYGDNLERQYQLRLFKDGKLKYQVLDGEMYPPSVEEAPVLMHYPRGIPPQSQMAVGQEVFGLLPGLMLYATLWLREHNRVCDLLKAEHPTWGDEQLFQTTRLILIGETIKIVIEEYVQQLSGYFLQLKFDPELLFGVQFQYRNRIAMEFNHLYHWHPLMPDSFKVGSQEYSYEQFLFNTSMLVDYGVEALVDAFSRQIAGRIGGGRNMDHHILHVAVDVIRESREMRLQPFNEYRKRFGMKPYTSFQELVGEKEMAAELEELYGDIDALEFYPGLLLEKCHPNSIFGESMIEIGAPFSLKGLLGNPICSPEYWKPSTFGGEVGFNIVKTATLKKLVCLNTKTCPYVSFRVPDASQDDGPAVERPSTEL

CC(O)CO (centres undefined) [PROPYLENE GLYCOL]
Not Active: IC50 [1] | IC50 (Adenosine receptor A3) | IC50 (Neutrophil elastase) | IC50 [2] | Ki [2] | IC50 [3] | Ki [3] | IC50 [4] | IC50 (Cytochrome P450 2D6) | Ki (Cytochrome P450 2D6)

CCCC1O[C@@H]2C[C@H]3[C@@H]4CCC5=CC(=O)C=C[C@]5(C)[C@H]4[C@@H](O)C[C@]3(C)[C@]2(C(=O)CO)O1 (some centres undefined) [BUDESONIDE]
Not Active: IC50 [1] | IC50 (Adenosine receptor A3) | IC50 (Neutrophil elastase) | IC50 [2] | Ki [2] | IC50 [3] | Ki [3] | IC50 [4] | IC50 (Cytochrome P450 2D6) | Ki (Cytochrome P450 2D6)

CC1Cc2ccccc2N1NC(=O)c1ccc(Cl)c(S(N)(=O)=O)c1 (centres undefined) [INDAPAMIDE]
Not Active: IC50 [1] | IC50 (Adenosine receptor A3) | IC50 (Neutrophil elastase) | IC50 [2] | Ki [2] | IC50 [3] | Ki [3] | IC50 [4] | IC50 (Cytochrome P450 2D6) | Ki (Cytochrome P450 2D6)

CCC1(c2ccc(N)cc2)CCC(=O)NC1=O (centres undefined) [AMINOGLUTETHIMIDE]
Not Active: IC50 [1] | IC50 (Adenosine receptor A3) | IC50 (Neutrophil elastase) | IC50 [2] | Ki [2] | IC50 [3] | Ki [3] | IC50 [4] | IC50 (Cytochrome P450 2D6) | Ki (Cytochrome P450 2D6)

CNCCCN1c2ccccc2CCc2ccccc21 [DESIPRAMINE]
Not Active: IC50 [1] | IC50 (Adenosine receptor A3) | IC50 (Neutrophil elastase) | IC50 [2] | Ki [2] | IC50 [3] | Ki [3] | IC50 [4] | IC50 (Cytochrome P450 2D6) | Ki (Cytochrome P450 2D6)

Cc1ccccc1N1C(=O)c2cc(S(N)(=O)=O)c(Cl)cc2NC1C (centres undefined) [METOLAZONE]
Not Active: IC50 [1] | IC50 (Adenosine receptor A3) | IC50 (Neutrophil elastase) | IC50 [2] | Ki [2] | IC50 [3] | Ki [3] | IC50 [4] | IC50 (Cytochrome P450 2D6) | Ki (Cytochrome P450 2D6)

O=c1[nH]c(=O)n([C@H]2C[C@H](O)[C@@H](CO)O2)cc1I [IDOXURIDINE]
Not Active: IC50 [1] | IC50 (Adenosine receptor A3) | IC50 (Neutrophil elastase) | IC50 [2] | Ki [2] | IC50 [3] | Ki [3] | IC50 [4] | IC50 (Cytochrome P450 2D6) | Ki (Cytochrome P450 2D6)

C[C@H](CCC(=O)O)[C@H]1CC[C@H]2[C@@H]3[C@H](O)C[C@@H]4C[C@H](O)CC[C@]4(C)[C@H]3C[C@H](O)[C@]12C [CHOLIC ACID]
Not Active: IC50 [1] | IC50 (Adenosine receptor A3) | IC50 (Neutrophil elastase) | IC50 [2] | Ki [2] | IC50 [3] | Ki [3] | IC50 [4] | IC50 (Cytochrome P450 2D6) | Ki (Cytochrome P450 2D6)

O=C(CCCN1CC=C(n2c(=O)[nH]c3ccccc32)CC1)c1ccc(F)cc1 [DROPERIDOL]
Not Active: IC50 [1] | IC50 (Adenosine receptor A3) | IC50 (Neutrophil elastase) | IC50 [2] | Ki [2] | IC50 [3] | Ki [3] | IC50 [4] | IC50 (Cytochrome P450 2D6) | Ki (Cytochrome P450 2D6)

CC(=O)O[C@@]12CO[C@@H]1C[C@H](O)[C@@]1(C)C(=O)[C@H](O)C3=C(C)[C@@H](OC(=O)[C@H](O)[C@@H](NC(=O)OC(C)(C)C)c4ccccc4)C[C@@](O)([C@@H](OC(=O)c4ccccc4)[C@H]21)C3(C)C.O.O.O [DOCETAXEL]
Not Active: IC50 [1] | IC50 (Adenosine receptor A3) | IC50 (Neutrophil elastase) | IC50 [2] | Ki [2] | IC50 [3] | Ki [3] | IC50 [4] | IC50 (Cytochrome P450 2D6) | Ki (Cytochrome P450 2D6)

C[C@H]1c2cccc(O)c2C(=O)C2=C(O)[C@]3(O)C(=O)C(C(N)=O)=C(O)[C@@H](N(C)C)[C@@H]3[C@@H](O)[C@@H]21.O [DOXYCYCLINE]
Not Active: IC50 [1] | IC50 (Adenosine receptor A3) | IC50 (Neutrophil elastase) | IC50 [2] | Ki [2] | IC50 [3] | Ki [3] | IC50 [4] | IC50 (Cytochrome P450 2D6) | Ki (Cytochrome P450 2D6)

CADMIUM ACETATE
Not Active: IC50 [1] | Ki [1] | IC50 (Adenosine receptor A3) | Ki (Adenosine receptor A3) | IC50 (Neutrophil elastase) | Ki (Neutrophil elastase) | IC50 [2] | Ki [2] | IC50 [3] | Ki [3] | IC50 [4] | Ki [4] | IC50 (Cytochrome P450 2D6) | Ki (Cytochrome P450 2D6)

CC(C)[C@@]1(NC(=O)[C@@H]2C[C@@H]3c4cccc5[nH]cc(c45)C[C@H]3N(C)C2)O[C@@]2(O)[C@@H]3CCCN3C(=O)[C@H](Cc3ccccc3)N2C1=O.CS(=O)(=O)O [DIHYDROERGOCRISTINE MESYLATE]
Not Active: IC50 [1] | IC50 (Adenosine receptor A3) | IC50 (Neutrophil elastase) | IC50 [2] | Ki [2] | IC50 [3] | Ki [3] | IC50 [4] | IC50 (Cytochrome P450 2D6) | Ki (Cytochrome P450 2D6)
